The text below walks through data of paper PMC12118337, “Development of a Peptide Inhibitor Targeting the C‐SH2 Domain of the SHP2 Phosphatase” (Chembiochem, 2025).

Assay [1] has as its target T1, SHP2 C‐SH2 domain (Homo sapiens, UniProt Q06124).
T1 construct: SHP2 N-SH2 domain (1–105), C-SH2 domain (106–220), PTP domain (224–541) and; His6 (pETM22 vector) (N, cleaved yes); made in house; host or cells: E. coli BL21(DE3)
T1 sequence (Q06124 106-220): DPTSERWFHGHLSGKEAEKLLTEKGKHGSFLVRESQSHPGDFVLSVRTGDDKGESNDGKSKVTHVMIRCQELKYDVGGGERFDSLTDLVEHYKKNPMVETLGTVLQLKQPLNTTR
In words: Isothermal titration calorimetry (ITC), SHP2 C-SH2 domain. The assay is classed as binding. As to conditions: 20 mM Tris-HCl pH 7.6, 150 mM NaCl, 1:1 stoichiometry assumed, one experiment, read-out: K D, C‐SH2 (ITC). As to the method: (§1) concentration of 100 nM in a final volume of 200 µL. For baseline subtraction, each peptide was added to FP buffer, instead of protein, with a final peptide concentration of 100 nM in a final volume of 200 µL. Samples were mixed gently then 3 x 60 µL of each sample was transferred into triplicate wells in a 96-well plate (OptiPlate-96 F Black; PerkinElmer). The FP was immediately measured on a Synergy H1 Microplate Reader (BioTek) with the excitation and emission monitored at 485 nm and 528 nm, respectively, over 30 minutes. FP values were automatically calculated by the Gen5 3.03 (BioTek) software associated with the microplate reader. Data were analysed in Excel 2016 by subtracting baseline values from FP values at 10 minutes. Data were then further analysed in GraphPad Prism 6 by plotting the baseline subtracted FP values against the protein concentration and fitting the data to a variable slope model of non-linear regression to obtain the KD values. Data are from three independent experiments, each performed in technical triplicates.
(§2) 5. Isothermal titration calorimetry
(§3) Isothermal titration calorimetry (ITC) was used to measure the binding of the Ac-ITSM(pTyr) to the SHP2 C-SH2 or N-SH2 domain. […]

The target in assay [2] is T2, SHP2 N‐SH2 domain (Homo sapiens, UniProt Q06124).
T2 construct: SHP2 N-SH2 domain (1–105), C-SH2 domain (106–220), PTP domain (224–541) and; His6 (pETM22 vector) (N, cleaved yes); made in house; host or cells: E. coli BL21(DE3)
T2 sequence (Q06124 1-105): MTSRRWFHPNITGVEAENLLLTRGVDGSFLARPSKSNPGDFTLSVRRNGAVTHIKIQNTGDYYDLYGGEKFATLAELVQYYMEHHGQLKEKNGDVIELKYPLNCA
In words: Isothermal titration calorimetry (ITC), SHP2 N-SH2 domain. The assay is classed as binding. As to conditions: 20 mM Tris-HCl pH 7.6, 150 mM NaCl, 1:1 stoichiometry assumed, one experiment, read-out: K D, N‐SH2 (ITC). The protocol: as §1, §2, §3
On the technique in general: In ITC the heat of successive injections is recorded.

For assay [3], the target named is T3, full‐length SHP2 (Homo sapiens, UniProt Q06124).
T3 construct: 1–525) proteins were prepared; His-SUMO3 (pETM11-SUMO3 vector) (N, cleaved yes); made in house; host or cells: E. coli BL21(DE3)
T3 sequence (Q06124 1-525): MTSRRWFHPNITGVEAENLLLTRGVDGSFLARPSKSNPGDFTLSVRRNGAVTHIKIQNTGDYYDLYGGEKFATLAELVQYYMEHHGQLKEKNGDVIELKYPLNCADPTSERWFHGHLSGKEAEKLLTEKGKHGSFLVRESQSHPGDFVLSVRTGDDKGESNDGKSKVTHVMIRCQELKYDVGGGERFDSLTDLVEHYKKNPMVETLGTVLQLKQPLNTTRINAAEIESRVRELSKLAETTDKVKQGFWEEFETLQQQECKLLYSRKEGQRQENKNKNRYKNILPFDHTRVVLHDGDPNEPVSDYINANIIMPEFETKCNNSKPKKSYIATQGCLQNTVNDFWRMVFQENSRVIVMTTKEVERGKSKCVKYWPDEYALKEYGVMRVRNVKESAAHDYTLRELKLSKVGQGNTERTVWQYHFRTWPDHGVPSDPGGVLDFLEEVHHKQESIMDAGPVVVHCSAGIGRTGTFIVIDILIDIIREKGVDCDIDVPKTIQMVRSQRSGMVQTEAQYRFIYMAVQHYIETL
In words: DiFMUP phosphatase assay, peptide activation (no activator). The assay is classed as biochemical. As to conditions: 0.5 nM full-length SHP2, no tandem activator, peptide 0.096 nM – 51.2 µM. The protocol:
6. DiFMUP phosphatase assays
SHP2 dephosphorylation of the fluorogenic substrate 6,8-difluoro-4-methylumbiliferyl phosphate (DiFMUP) was measured to evaluate the effect of acetylated peptides on SHP2 activity. Final concentrations of 0.5 nM full-length SHP2, 200 µM DiFMUP (Invitrogen) and 26 nM bisphosphorylated tandem ITIM-[dPEG4]2-ITSM (CASLO ApS) were used, unless stated otherwise, per well in 96-well plates (OptiPlate-96 F Black; PerkinElmer). For peptide activation assays, each well contained 60 µL of reaction buffer (50 mM HEPES pH 7.6, 150 mM NaCl, 1 mM EDTA, 0.05% Tween 20, freshly added 5 mM DTT), 10 µL of SHP2 and 20 µL of the test peptide (0.096 nM – 51.2 µM final concentration). For peptide inhibition assays in the presence of a SHP2 activator, each well contained 40 µL of reaction buffer (50 mM HEPES pH 7.6, 150 mM NaCl, 1 mM EDTA, 0.05% Tween 20, freshly added 5 mM DTT), 10 µL of SHP2 and 40 µL of previously mixed bisphosphorylated tandem ITIM-[dPEG4]2-ITSM activator and test peptide (0.096 nM – 51.2 µM or 0.376 nM – 200 µM final concentration). […] The fluorescence was immediately measured on a Synergy H1 Microplate Reader (BioTek) with the excitation and emission monitored at 358 nm and 452 nm, respectively, over 30 minutes. Data were analysed in Excel 2016 by subtracting background values from emission values and calculating the slope of the emission profiles. […]

Non-standard residues stand in square brackets, D forms with d. Residues, ends and D or L forms follow the SMILES beside them. pY = N[C@@H](Cc1ccc(OP(=O)(O)O)cc1)C(=O)O

Regarding `CC[C@H](C)[C@H](NC(=O)[C@@H](NC(=O)[C@H](C)NC(=O)[C@H](Cc1ccc(OP(=O)(O)O)cc1)NC(=O)[C@H](CCC(=O)O)NC(=O)[C@@H](NC(=O)[C@H](CCC(N)=O)NC(=O)[C@H](CCC(=O)O)NC(C)=O)[C@@H](C)O)[C@@H](C)O)C(=O)N[C@H](C(=O)N[C@@H](Cc1ccccc1)C(=O)N1CCC[C@H]1C(N)=O)C(C)C` [Ac‐ITSM(pTyr)] (Ac-EQTE[pY]ATIVFP-NH2), the Kd in assay [1] worked out at 58.8 nM; in assay [2], 106 nM. The “SHP2 phosphatase activity with peptide alone (activation)” value in assay [3] was “increased”.
